Experimental data published in the NIST ThermoML archive (doi:10.1016/j.jct.2019.07.011).

Test: xn = mol fraction of the nth substance listed
Conditions: Gas, Frequency=0.002 MHz, Spherical resonator

[He] [helium] + C
Conditions	speed of sound [m/s]
325 K, 5510.1 kPa, x2 = 0.95	474.34
325 K, 6484.7 kPa, x2 = 0.8999	489.68
325 K, 6498.1 kPa, x2 = 0.95	475.29
325 K, 7001.3 kPa, x2 = 0.95	475.96
325 K, 7483.3 kPa, x2 = 0.8999	491.54
325 K, 7498.5 kPa, x2 = 0.95	476.75
325 K, 8497.4 kPa, x2 = 0.8999	493.86
325 K, 8512.5 kPa, x2 = 0.95	478.75
325 K, 9494.2 kPa, x2 = 0.8999	496.64
325 K, 9503.9 kPa, x2 = 0.95	481.25
325 K, 10493 kPa, x2 = 0.8999	499.87
325 K, 10502 kPa, x2 = 0.95	484.31
325 K, 11469 kPa, x2 = 0.95	487.82
325 K, 11475 kPa, x2 = 0.8999	503.57
325 K, 12500 kPa, x2 = 0.8999	507.85
325 K, 12517 kPa, x2 = 0.95	492.25
325 K, 13295 kPa, x2 = 0.95	495.91
325 K, 13503 kPa, x2 = 0.8999	512.52
325 K, 14011 kPa, x2 = 0.95	499.58
325 K, 14493 kPa, x2 = 0.8999	517.56
325 K, 14716 kPa, x2 = 0.95	503.46
325 K, 15294 kPa, x2 = 0.8999	521.98
325 K, 15309 kPa, x2 = 0.95	506.94
325 K, 15995 kPa, x2 = 0.8999	526.06
325 K, 16003 kPa, x2 = 0.95	511.23
325 K, 16485 kPa, x2 = 0.8999	529.05
325 K, 16552 kPa, x2 = 0.95	514.81
325 K, 16992 kPa, x2 = 0.8999	532.23
325 K, 17002 kPa, x2 = 0.95	517.85
325 K, 17513 kPa, x2 = 0.95	521.43
325 K, 17520 kPa, x2 = 0.8999	535.66
325 K, 17961 kPa, x2 = 0.95	524.66
325 K, 17995 kPa, x2 = 0.8999	538.81
325 K, 18490 kPa, x2 = 0.8999	542.22
325 K, 18521 kPa, x2 = 0.95	528.85
325 K, 18993 kPa, x2 = 0.8999	545.76
325 K, 19024 kPa, x2 = 0.95	532.71
325 K, 19504 kPa, x2 = 0.8999	549.41
325 K, 19536 kPa, x2 = 0.95	536.75
325 K, 19906 kPa, x2 = 0.8999	552.38
350 K, 476.77 kPa, x2 = 0.95	491.9
350 K, 489.4 kPa, x2 = 0.8999	503.05
350 K, 985.81 kPa, x2 = 0.95	491.68
350 K, 990 kPa, x2 = 0.8999	503.09
350 K, 1981.5 kPa, x2 = 0.8999	503.39
350 K, 1988.5 kPa, x2 = 0.95	491.41
350 K, 3476.8 kPa, x2 = 0.8999	504.31
350 K, 3557.7 kPa, x2 = 0.95	491.72
350 K, 4993.3 kPa, x2 = 0.8999	506.12
350 K, 5005.4 kPa, x2 = 0.95	492.68
350 K, 6484 kPa, x2 = 0.8999	508.51
350 K, 6520.9 kPa, x2 = 0.95	494.52
350 K, 7487.6 kPa, x2 = 0.8999	510.6
350 K, 8493.7 kPa, x2 = 0.8999	513.01
350 K, 8537.3 kPa, x2 = 0.95	498.36
350 K, 9502.1 kPa, x2 = 0.8999	515.83
350 K, 10503 kPa, x2 = 0.8999	518.95
350 K, 10534 kPa, x2 = 0.95	503.83
350 K, 11996 kPa, x2 = 0.8999	524.33
350 K, 12032 kPa, x2 = 0.95	509.02
350 K, 13418 kPa, x2 = 0.95	514.87
350 K, 13498 kPa, x2 = 0.8999	530.47
350 K, 14498 kPa, x2 = 0.8999	535.04
350 K, 14519 kPa, x2 = 0.95	519.93
350 K, 15505 kPa, x2 = 0.8999	539.96
350 K, 15599 kPa, x2 = 0.95	525.36
350 K, 16500 kPa, x2 = 0.8999	545.16
350 K, 16626 kPa, x2 = 0.95	530.93
350 K, 17495 kPa, x2 = 0.8999	550.65
350 K, 17512 kPa, x2 = 0.95	536.05
350 K, 18437 kPa, x2 = 0.95	541.71
350 K, 18509 kPa, x2 = 0.8999	556.57
350 K, 19237 kPa, x2 = 0.95	546.81
350 K, 19509 kPa, x2 = 0.8999	562.67
350 K, 20020 kPa, x2 = 0.95	552
350 K, 20352 kPa, x2 = 0.8999	568.05
350 K, 20966 kPa, x2 = 0.95	558.46
375 K, 480.89 kPa, x2 = 0.8999	517.61
375 K, 508.08 kPa, x2 = 0.95	506.89
375 K, 970.3 kPa, x2 = 0.95	506.94
375 K, 974.52 kPa, x2 = 0.8999	518
375 K, 1977.8 kPa, x2 = 0.8999	518.72
375 K, 1994.9 kPa, x2 = 0.95	507.23
375 K, 2982.4 kPa, x2 = 0.8999	519.78
375 K, 3486.1 kPa, x2 = 0.95	508.11
375 K, 4474.8 kPa, x2 = 0.8999	521.69
375 K, 4994.3 kPa, x2 = 0.95	509.68
375 K, 5993.9 kPa, x2 = 0.8999	524.5
375 K, 6507.4 kPa, x2 = 0.95	511.94
375 K, 7482.9 kPa, x2 = 0.8999	527.66
375 K, 8485.9 kPa, x2 = 0.8999	530.3
375 K, 8534.5 kPa, x2 = 0.95	516.24
375 K, 9494.9 kPa, x2 = 0.8999	533.16
375 K, 10491 kPa, x2 = 0.8999	536.22
375 K, 10526 kPa, x2 = 0.95	521.64
375 K, 11482 kPa, x2 = 0.8999	539.61
375 K, 12041 kPa, x2 = 0.95	526.64
375 K, 12500 kPa, x2 = 0.8999	543.46
375 K, 13432 kPa, x2 = 0.95	531.87
375 K, 13465 kPa, x2 = 0.8999	547.3
375 K, 14475 kPa, x2 = 0.8999	551.75
375 K, 14510 kPa, x2 = 0.95	536.35
375 K, 15493 kPa, x2 = 0.8999	556.41
375 K, 15609 kPa, x2 = 0.95	541.3
375 K, 16440 kPa, x2 = 0.8999	560.93
375 K, 16573 kPa, x2 = 0.95	545.93
375 K, 17490 kPa, x2 = 0.8999	566.34
375 K, 17518 kPa, x2 = 0.95	550.72
375 K, 18172 kPa, x2 = 0.8999	569.92
375 K, 18322 kPa, x2 = 0.95	555.02
375 K, 18705 kPa, x2 = 0.8999	572.84
375 K, 19198 kPa, x2 = 0.95	559.9
